According to the NIST ThermoML archive (doi:10.1021/je050353j):
Numbers after ± are expanded uncertainties.

Key:
[1] = refractive index (Na D-line) (dimensionless); conditions: 298.15 K; 100 kPa; Liquid; Standard Abbe refractometry
[2] = relative permittivity at zero frequency (dimensionless); xn = mol fraction of the nth substance listed; conditions: 298.15 K, Liquid, Parallel plate capacitor

Structure (SMILES) | refractive index [1] | relative permittivity at zero frequency ([2]; 100 kPa, x1 = 0.2) | relative permittivity at zero frequency ([2]; 100 kPa, x1 = 0.4) | relative permittivity at zero frequency ([2]; 100 kPa, x1 = 0.6) | relative permittivity at zero frequency ([2]; 100 kPa, x1 = 0.8) | relative permittivity at zero frequency ([2]; 50000 kPa, x1 = 0.2) | relative permittivity at zero frequency ([2]; 50000 kPa, x1 = 0.4) | relative permittivity at zero frequency ([2]; 50000 kPa, x1 = 0.6) | relative permittivity at zero frequency ([2]; 50000 kPa, x1 = 0.8) | relative permittivity at zero frequency ([2]; 100000 kPa, x1 = 0.2) | relative permittivity at zero frequency ([2]; 100000 kPa, x1 = 0.4) | relative permittivity at zero frequency ([2]; 100000 kPa, x1 = 0.6) | relative permittivity at zero frequency ([2]; 100000 kPa, x1 = 0.8) | relative permittivity at zero frequency ([2]; 150000 kPa, x1 = 0.2) | relative permittivity at zero frequency ([2]; 150000 kPa, x1 = 0.4) | relative permittivity at zero frequency ([2]; 150000 kPa, x1 = 0.6) | relative permittivity at zero frequency ([2]; 150000 kPa, x1 = 0.8) | relative permittivity at zero frequency ([2]; 200000 kPa, x1 = 0.2) | relative permittivity at zero frequency ([2]; 200000 kPa, x1 = 0.4) | relative permittivity at zero frequency ([2]; 200000 kPa, x1 = 0.6) | also measured
OCCO [1,2-ethanediol] | 1.4304 ± 0.0008 |  |  |  |  |  |  |  |  |  |  |  |  |  |  |  |  |  |  |  | 
OCCO [1,2-ethanediol] + O |  | 65.26 ± 0.14 | 56.38 ± 0.12 | 49.73 ± 0.11 | 44.76 ± 0.1 | 66.72 ± 0.14 | 57.74 ± 0.12 | 50.99 ± 0.11 | 45.95 ± 0.1 | 68.04 ± 0.14 | 58.96 ± 0.13 | 52.14 ± 0.11 | 47.04 ± 0.1 | 69.3 ± 0.15 | 60.14 ± 0.13 | 53.21 ± 0.11 | 48.05 ± 0.1 | 70.47 ± 0.15 | 61.19 ± 0.13 | 54.2 ± 0.12 | relative permittivity at zero frequency ([2]; 200000 kPa, x1 = 0.8): 49 ± 0.1; relative permittivity at zero frequency ([2]; 250000 kPa, x1 = 0.2): 71.6 ± 0.15; relative permittivity at zero frequency ([2]; 250000 kPa, x1 = 0.4): 62.23 ± 0.13; relative permittivity at zero frequency ([2]; 250000 kPa, x1 = 0.6): 55.15 ± 0.12; relative permittivity at zero frequency ([2]; 250000 kPa, x1 = 0.8): 49.89 ± 0.11; relative permittivity at zero frequency ([2]; 300000 kPa, x1 = 0.2): 72.68 ± 0.15; relative permittivity at zero frequency ([2]; 300000 kPa, x1 = 0.4): 63.22 ± 0.13; relative permittivity at zero frequency ([2]; 300000 kPa, x1 = 0.6): 56.06 ± 0.12; relative permittivity at zero frequency ([2]; 300000 kPa, x1 = 0.8): 50.72 ± 0.11
OCC(O)CO [glycerol] | 1.4722 ± 0.0008 |  |  |  |  |  |  |  |  |  |  |  |  |  |  |  |  |  |  |  | 
OCC(O)CO [glycerol] + O |  | 63.79 ± 0.14 | 55.26 ± 0.12 | 49.52 ± 0.11 | 45.48 ± 0.1 | 65.05 ± 0.14 | 56.37 ± 0.12 | 50.55 ± 0.11 | 46.43 ± 0.1 | 66.28 ± 0.14 | 57.44 ± 0.12 | 51.5 ± 0.11 | 47.33 ± 0.1 | 67.44 ± 0.14 | 58.46 ± 0.12 | 52.42 ± 0.11 | 48.18 ± 0.1 | 68.55 ± 0.15 | 59.43 ± 0.13 | 53.29 ± 0.11 | relative permittivity at zero frequency ([2]; 200000 kPa, x1 = 0.8): 48.99 ± 0.1; relative permittivity at zero frequency ([2]; 250000 kPa, x1 = 0.2): 69.62 ± 0.15; relative permittivity at zero frequency ([2]; 250000 kPa, x1 = 0.4): 60.37 ± 0.13; relative permittivity at zero frequency ([2]; 250000 kPa, x1 = 0.6): 54.14 ± 0.11; relative permittivity at zero frequency ([2]; 250000 kPa, x1 = 0.8): 49.77 ± 0.11; relative permittivity at zero frequency ([2]; 300000 kPa, x1 = 0.2): 70.65 ± 0.15; relative permittivity at zero frequency ([2]; 300000 kPa, x1 = 0.4): 61.28 ± 0.13; relative permittivity at zero frequency ([2]; 300000 kPa, x1 = 0.6): 54.95 ± 0.12; relative permittivity at zero frequency ([2]; 300000 kPa, x1 = 0.8): 50.53 ± 0.11
O [water] + OCCO |  |  |  |  |  |  |  |  |  |  |  |  |  |  |  |  |  |  |  |  | relative permittivity at zero frequency ([2]; 100 kPa, x2 = 0): 78.39 ± 0.17; relative permittivity at zero frequency ([2]; 50000 kPa, x2 = 0): 80.18 ± 0.17; relative permittivity at zero frequency ([2]; 100000 kPa, x2 = 0): 81.88 ± 0.17; relative permittivity at zero frequency ([2]; 150000 kPa, x2 = 0): 83.47 ± 0.18; relative permittivity at zero frequency ([2]; 200000 kPa, x2 = 0): 85.01 ± 0.18; relative permittivity at zero frequency ([2]; 250000 kPa, x2 = 0): 86.48 ± 0.18; relative permittivity at zero frequency ([2]; 300000 kPa, x2 = 0): 87.94 ± 0.19
